Measurements reported in PubChem BioAssay AID1918946 (Molecular Pharmacology Branch, DTP, NCI, 2023).

Test system: 885512-296-R-J2-PDC complex spheroid viability
Test: Anticancer human tumor 885512-296-R-J2-PDC patient-derived breast carcinoma cell line growth inhibition
Settings: for IC50: curve of first compound; for viability, T/C: stronger effect = lower value
How it was run: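 Drug combinations with the LSD1 inhibitor iadademstat tested on tumor cells co-cultured as spheroids with endothelial cells and mesenchymal stem cells. Concentrations descended in half-log increments from clinical Cmax or 10 microM.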

[1] = second compound 0.1 µM, first compound 0.0316 µM
[2] = second compound 0.1 µM, first compound 0.1 µM
[3] = second compound 0.1 µM, first compound 0.316 µM
[4] = second compound 0.1 µM, first compound 1 µM
[5] = second compound 0.1 µM, first compound 3.16 µM
[6] = second compound 0.1 µM, first compound 10 µM
[7] = second compound 0.316 µM, first compound 0.0316 µM
[8] = second compound 0.316 µM, first compound 0.1 µM
[9] = second compound 0.316 µM, first compound 0.316 µM
[10] = second compound 0.316 µM, first compound 1 µM
[11] = second compound 0.316 µM, first compound 3.16 µM
[12] = second compound 0.316 µM, first compound 10 µM
[13] = second compound 1 µM, first compound 0.0316 µM
[14] = second compound 1 µM, first compound 0.1 µM
[15] = second compound 1 µM, first compound 0.316 µM
[16] = second compound 1 µM, first compound 1 µM
[17] = second compound 1 µM, first compound 3.16 µM
[18] = second compound 1 µM, first compound 10 µM
[19] = second compound 3.16 µM, first compound 0.0316 µM
[20] = second compound 3.16 µM, first compound 0.1 µM
[21] = second compound 3.16 µM, first compound 0.316 µM
[22] = second compound 3.16 µM, first compound 1 µM
[23] = second compound 3.16 µM, first compound 3.16 µM
[24] = second compound 3.16 µM, first compound 10 µM
[25] = second compound 10 µM, first compound 0.0316 µM
[26] = second compound 10 µM, first compound 0.1 µM
[27] = second compound 10 µM, first compound 0.316 µM
[28] = second compound 10 µM, first compound 1 µM
[29] = second compound 10 µM, first compound 3.16 µM
[30] = second compound 10 µM, first compound 10 µM
[31] = second compound 0.1 µM, first compound 0.00316 µM
[32] = second compound 0.1 µM, first compound 0.01 µM
[33] = second compound 0.316 µM, first compound 0.00316 µM
[34] = second compound 0.316 µM, first compound 0.01 µM
[35] = second compound 1 µM, first compound 0.00316 µM
[36] = second compound 1 µM, first compound 0.01 µM
[37] = second compound 3.16 µM, first compound 0.00316 µM
[38] = second compound 3.16 µM, first compound 0.01 µM
[39] = second compound 10 µM, first compound 0.00316 µM
[40] = second compound 10 µM, first compound 0.01 µM
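Also: spheroids exposed to agents for 7 days before viability read.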

SMILES	IC50 (second compound 0.1 µM)	IC50 (second compound 0.316 µM)	IC50 (second compound 1 µM)	IC50 (second compound 3.16 µM)	IC50 (second compound 10 µM)	viability, T/C [1]	viability, T/C [2]	viability, T/C [3]	viability, T/C [4]	viability, T/C [7]	viability, T/C [8]	viability, T/C [9]	viability, T/C [10]	viability, T/C [13]	viability, T/C [14]	viability, T/C [15]	viability, T/C [16]	viability, T/C [19]	viability, T/C [20]	viability, T/C [21]	other results
CC(C)c1c(-c2ccccc2)nc2c(C#N)c[nH]n2c1=O + NC1CC1c1ccc(-c2cccc(O)c2)cc1	> 10000 nM	> 10000 nM	> 10000 nM	> 10000 nM	6760 nM	120%	128%	127%	118%	140%	124%	128%	128%	132%	121%	118%	118%	138%	131%	118%	viability, T/C [5]: 119%; viability, T/C [6]: 84.8%; viability, T/C [11]: 137%; viability, T/C [12]: 87.4%; viability, T/C [17]: 125%; viability, T/C [18]: 74.9%; viability, T/C [22]: 108%; viability, T/C [23]: 124%; viability, T/C [24]: 71.9%; viability, T/C [25]: 88%; viability, T/C [26]: 88.3%; viability, T/C [27]: 88.5%; viability, T/C [28]: 70.1%; viability, T/C [29]: 72.9%; viability, T/C [30]: 40.1%
CC1COCCN1c1cc(-c2ccnn2C)c2ccnc(-c3ccn[nH]3)c2n1 (stereo not given) + NC1CC1c1ccc(-c2cccc(O)c2)cc1	< 3.16 nM	< 3.16 nM	< 3.16 nM	< 3.16 nM	< 3.16 nM	2.05%	1.94%	2.98%	3.66%	2.44%	2%	3.18%	4.22%	2.3%	2.21%	3.06%	4.25%	1.89%	2.1%	2.93%	viability, T/C [31]: 3.29%; viability, T/C [32]: 2.63%; viability, T/C [33]: 4.19%; viability, T/C [34]: 3.06%; viability, T/C [35]: 3.96%; viability, T/C [36]: 3.23%; viability, T/C [37]: 2.66%; viability, T/C [38]: 2.58%; viability, T/C [22]: 4.29%; viability, T/C [39]: 3.44%; viability, T/C [40]: 2.73%; viability, T/C [25]: 1.93%; viability, T/C [26]: 2.12%; viability, T/C [27]: 2.49%; viability, T/C [28]: 4.01%
COc1ccc([C@@H](O)c2cc(-c3ncnc4cc(N5CCOCC5)ccc34)c(F)cc2Cl)nn1 + NC1CC1c1ccc(-c2cccc(O)c2)cc1	3510 nM	3860 nM	3330 nM	1450 nM	448 nM	126%	127%	94.4%	86.9%	111%	121%	103%	94.7%	98.3%	109%	87.9%	78.9%	108%	104%	71.6%	viability, T/C [5]: 54.5%; viability, T/C [6]: 12.9%; viability, T/C [11]: 57.6%; viability, T/C [12]: 11.8%; viability, T/C [17]: 52.2%; viability, T/C [18]: 11.8%; viability, T/C [22]: 58.8%; viability, T/C [23]: 35.8%; viability, T/C [24]: 9.34%; viability, T/C [25]: 78.4%; viability, T/C [26]: 72.1%; viability, T/C [27]: 50.6%; viability, T/C [28]: 39.7%; viability, T/C [29]: 25.5%; viability, T/C [30]: 6.59%
Nc1ncn(C2CC(O)C(CO)O2)c(=O)n1 (stereo not given) + NC1CCC(NC2CC2c2ccccc2)CC1	30.8 nM	29.9 nM	28.3 nM	27.1 nM	19.8 nM	46.9%	25.2%	12.7%	13.6%	53%	24.6%	14.8%	15.4%	47%	30.8%	14.5%	16.1%	44.4%	28.9%	19.8%	viability, T/C [31]: 91.3%; viability, T/C [32]: 91.5%; viability, T/C [33]: 105%; viability, T/C [34]: 75.5%; viability, T/C [35]: 101%; viability, T/C [36]: 74.1%; viability, T/C [37]: 80.1%; viability, T/C [38]: 72.6%; viability, T/C [22]: 16.1%; viability, T/C [39]: 74.8%; viability, T/C [40]: 59%; viability, T/C [25]: 45.4%; viability, T/C [26]: 21.4%; viability, T/C [27]: 15.6%; viability, T/C [28]: 11.5%
